Measurements reported in patent US20110183969A1, “ANTIFUNGAL COMBINATION THERAPY” (priority 2008, published 2011).
Values after ≈ are worked out from the molar mass of the structure shown. Like-named read-outs stand apart in the source and are kept apart here.

How the values were obtained:
Assay type in all cases: cell-based
[1] = test system: Fusarium solani FS2; experiment: 24 hr Fusarium solani MIC (RPMI medium, FS2); details: banded into grades
Procedure: Between 1 and 5 mgs of compound were accurately weighed out into a sterile Eppendorf tube. The compound was dissolved in DMSO to give a solution containing 5 mg/mL. Tubes were stored at −20° C. until required.
On the day of testing thawed solutions were vortex mixed to ensure homogeneity. 30 μL of solution was removed and added to 570 μL of sterile water in a separate sterile Eppendorf The thoroughly mixed solution was used to prepare a series of doubling dilutions in water, in a deep well plate. […] replicate plates were prepared using a Minitrak by aspirating 20 μL from each well into eleven clear polystyrene 96 well plates.
Spores of Aspergillus spp. (Aspergillus fumigatus [two strains], Aspergillus terreus [two strains], Aspergillus niger and Aspergillus flavus) were harvested from cultures grown on Sabarauds agar for 5 days, and resuspended in PBS/Tween 80 to approx 1×10^7 cfu/mL. Other filamentous fungi (Absidia corymbifera, Fusarium solani, Rhizomucor, Scedosporium spp., Trichophyton spp.), were grown on Sabarauds agar for 2-10 days and spores/hyphae resuspended in PBS/Tween to give approx 1×10^7 cfu/mL. Candida species (Candida albicans, Candida glabrata, Candida krusei, Candida parapsilosis and Candida tropicalis) were grown on Sabarauds agar, cells were harvested from the agar using a sterile loop and resuspended in PBS/Tween 80 to approx 1×10^6 cfu/mL. Each organism suspension was diluted in RPMI medium, containing 2% glucose and 0.135 M MOPS buffer (pH 7.0) to 0.5−2×10^4 cfu/mL for Aspergillus spp. and other filamentous fungi and 0.5-2×10^3 cfu/mL for yeast. 80 μL of an organism suspension was added to each well of the plate containing drug dilutions.
This produced MIC plates with a drug range 50-0.05 mg/L and organism inocula of 1-2×10^4 cfu/mL for Aspergillus spp. and other filamentous fungi and 1-2×10^3 cfu/mL for yeasts. All plates were incubated for 24-48 hrs at 35° C. Growth was assessed by monitoring the optical density at 485 nm for each well. The MIC of a compound is the lowest drug concentration that inhibits growth of an organism by >80% compared with a drug free control. MICs are recorded as mg/L. Other growth media can be used for susceptibility testing, and the activity of the described compounds can also be assessed in a medium comprising 1% glucose, 1% ammonium chloride and 0.5% yeast extract (YAG medium). To perform MIC tests in this medium, dilutions of compounds are prepared in microtitre plates as described above. Fungal strains to be tested are grown and harvested in an identical manner to that described above, each organism suspension is then diluted in YAG medium to 0.5-2×10^4 cfu/mL for Aspergillus spp. and other filamentous fungi and 0.5-2×10^3 cfu/mL for yeast. 80 μL of an organism suspension was added to each well of the plate containing drug dilutions. This produced MIC plates with a drug range 50-0.05 mg/L and organism inocula of 1-2×10^4 cfu/mL for Aspergillus spp. and other filamentous fungi and 1-2×10^3 cfu/mL for yeasts. All plates were incubated for 24 hrs at 35° C. Growth was assessed by monitoring the optical density at 485 nm for each well. The MIC of a compound is the lowest drug concentration that inhibits growth of an organism by >70% compared with a drug free control. MICs are recorded as mg/L. In cases where the MIC of an organism is […] mg/L the MIC is repeated using a concentration range of 0.5-0.0005 mg/L. MIC tests in YAG medium have more clear-cut endpoints and have slightly lower MICs than those performed in RPMI medium.
24 hr Fusarium solani MIC Results (RPMI Medium, FS2): […]

[2] = test system: Aspergillus flavus; experiment: MIC (YAG medium); details: YAG medium, MIC banded into grades; for MIC: Aspergillus flavus, read-out: MIC A. flavus (grade)
Procedure, shortened: (§1)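 Growth inhibition was determined by optical density at 485 nm after a 24-hour incubation at 35° C in glucose/ammonium chloride/yeast extract (YAG) medium. MICs, expressed in mg/L, were taken as the lowest drug level reducing growth by more than 70% relative to untreated wells.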

[3] = test system: Aspergillus fumigatus AF210; experiment: MIC (YAG medium); details: YAG medium, MIC banded into grades, AF210; for MIC: Aspergillus fumigatus, read-out: MIC A. fumigatus 210 (grade)
Procedure, shortened: as §1

[4] = test system: Aspergillus fumigatus AF293; experiment: MIC (YAG medium); details: YAG medium, MIC banded into grades, AF293; for MIC: Aspergillus fumigatus, read-out: MIC A. fumigatus (grade)
Procedure, shortened: as §1

[5] = test system: Aspergillus niger; experiment: MIC (YAG medium); details: YAG medium, MIC banded into grades; for MIC: Aspergillus niger, read-out: MIC A. niger (grade)
Procedure, shortened: as §1

[6] = test system: Aspergillus terreus AT49; experiment: MIC (YAG medium); details: YAG medium, MIC banded into grades, AT49; for MIC: Aspergillus terreus, read-out: MIC A. terreus 49 (grade)
Procedure, shortened: as §1

[7] = test system: Aspergillus terreus AT4; experiment: MIC (YAG medium); details: YAG medium, MIC banded into grades, AT4; for MIC: Aspergillus terreus, read-out: MIC A. terreus (grade)
Procedure, shortened: as §1

[8] = test system: Aspergillus fumigatus AF210; experiment: Checkerboard titration (FIC) of an indolizine derivative with a second antifungal agent, RPMI medium; details: compound of Example 21 in combination with caspofungin, 48 hrs
Procedure: To determine the combined antifungal effect of indolizine derivatives of formula (I) and the second antifungal agent a checkerboard titration can be carried out. These are relatively simple tests to determine the combined effects of two compound. In the checkerboard titration doubling dilutions of compound A (e.g. an indolizine derivative of formula (I)) are prepared in every row across a microtitre plate and doubling dilutions of compound B (e.g. a second antifungal agent as described above) are prepared in every column down a microtitre plate. The activity of the two compounds in combination can be compared with the activity of each compound alone. In these experiments a narrow range of dilutions was tested for each compound around the MIC.
A stock solution of the compound of Example […] was prepared in DMSO. A stock solution of a second antifungal agent, in this case caspofungin, was 2 mg/ml.
The stock solution of the compound of Example 21 was diluted 1:2000 in water to 2.5 μg/ml. From this stock, aqueous solutions containing the following concentrations of the compound of Example 21 were prepared 0.9, 0.8, 0.7, 0.6, 0.5, 0.4, 0.3, 0.2, 0.1, 0.05, 0.025, 0.0125 μg/ml. […]
To determine the combined effect of the compounds the Fractional inhibitory concentration FIC was determined, where FIC is defined as: […]

SMILES | MIC ([1]; read-out: MIC) [µg/mL] | MIC [2] [µg/mL] | MIC [3] [µg/mL] | MIC [4] [µg/mL] | MIC [5] [µg/mL] | MIC [6] [µg/mL] | MIC [7] [µg/mL] | MIC [1] | MIC A. flavus (grade) [2] | MIC A. fumigatus 210 (grade) [3] | MIC A. fumigatus (grade) [4] | MIC A. niger (grade) [5] | MIC A. terreus 49 (grade) [6] | MIC A. terreus (grade) [7] | FIC (fractional inhibitory concentration) [8]
CON=C1CCN(c2ccc(NC(=O)C(=O)c3c(-c4ccccc4)cc4ccccn34)cc2)CC1 [Example 2, N-[4-(4-methoxyimino-piperidin-1-yl)-phenyl]-2-oxo-2-(2-phenyl-indolizin-3-yl)-acetamide] | < 1 | < 1 | < 1 | < 1 | < 1 | < 1 | < 1 | – | – | – | – | – | – | – | –
C=C1CCN(c2ccc(NC(=O)C(=O)c3c(-c4ccccc4)cc4ccccn34)cc2)CC1 [Example 3, N-[4-(4-methylene-piperidin-1-yl)-phenyl]-2-oxo-2-(2-phenyl-indolizin-3yl) acetamide] | – | – | – | – | – | – | – | 3 (A grade of 3 represents an MIC of less than 1 mg/L) | 3 (A grade of 3 represents an MIC of less than 1 mg/L) | 3 (A grade of 3 represents an MIC of less than 1 mg/L) | 3 (A grade of 3 represents an MIC of less than 1 mg/L) | 3 (A grade of 3 represents an MIC of less than 1 mg/L) | 3 (A grade of 3 represents an MIC of less than 1 mg/L) | 3 (A grade of 3 represents an MIC of less than 1 mg/L) | –
CC1CN(C2CCN(c3ccc(NC(=O)C(=O)c4c(-c5ccccc5)cc5ccccn45)cc3)CC2)CC(C)O1 (stereo not shown) [Example 24, N-{4-[4-(2,6-Dimethyl-morpholin-4-yl)-piperidin-1-yl]-phenyl}-2-oxo-2-(2-phenyl-indolizin-3-yl)-acetamide] | 1 to 10 (≈ 1.86 to 18.6 µM) | < 1 | < 1 | < 1 | < 1 | < 1 | < 1 | – | – | – | – | – | – | – | –
Cc1cc(C)nc(N2CCN(c3ccc(NC(=O)C(=O)c4c(-c5ccccc5)cc5ccccn45)cc3)CC2)c1 [Example 21, N-{4-[4-(4,6-Dimethyl-pyridin-2-yl)-piperazin-1-yl]-phenyl}-2-oxo-2-(2-phenyl-indolizin-3-yl)-acetamide] | < 1 | < 1 | < 1 | < 1 | < 1 | < 1 | < 1 | – | – | – | – | – | – | – | 0.66
O=C(Nc1ccc(N2CCC3(CC2)OCCO3)cc1)C(=O)c1c(-c2ccccc2)cc2ccccn12 [Example 23, N-[4-(1,4-dioxa-8-aza-spiro[4.5]dec-8-yl)-phenyl}-2-oxo-2-(2-phenyl-indolizine-3-yl)-acetamide] | < 1 | < 1 | < 1 | < 1 | < 1 | < 1 | < 1 | – | – | – | – | – | – | – | –
CC(C)c1cc(NC(=O)C(=O)c2c(-c3ccccc3)cc3ccccn23)ccc1C(=O)OCCn1ccnc1C(C)C [Example 13, 2-Isopropyl-4-[2-oxo-2-(2-phenyl-indolizin-3-yl)-acetylamino]-benzoic acid 2-(2-isopropyl-imidazol-1-yl)-ethyl ester] | 1 to 10 (≈ 1.78 to 17.8 µM) | < 1 | 1 to 10 (≈ 1.78 to 17.8 µM) | < 1 | > 10 | < 1 | 1 to 10 (≈ 1.78 to 17.8 µM) | – | – | – | – | – | – | – | –
O=C(Nc1ccc(N2CCN(CC3CCOCC3)CC2)cc1)C(=O)c1c(-c2ccccc2)cc2ccc(F)cn12 [Example 53, 2-(6-Fluoro-2-phenyl-indolizin-3-yl)-2-oxo-N-{4-[4-(tetrahydro-pyran-4-ylmethyl)-piperazin-1-yl]-phenyl}-acetamide] | – | 1 to 10 (≈ 1.85 to 18.5 µM) | 1 to 10 (≈ 1.85 to 18.5 µM) | 1 to 10 (≈ 1.85 to 18.5 µM) | > 10 | 1 to 10 (≈ 1.85 to 18.5 µM) | 1 to 10 (≈ 1.85 to 18.5 µM) | – | – | – | – | – | – | – | –
